{
  "source": "patent US6346517B1",
  "about": "“Synergy between low molecular weight heparin and platelet aggregation inhibitors, providing a combination therapy for the prevention and treatment of various thromboembolic disorders” (Bristol-Myers Squibb Pharma Company, priority 1999, dated 2002)",
  "molecules": {"B1": {"name": "Abciximab: c7E3 Fab (Abciximab, Centocor), platelet GPIIb/IIIa antagonist (antibody, chains of the INN, looked up, V domains shown)", "VH": "EVQLQQSGTVLARPGASVKMSCEASGYTFTNYWMHWVKQRPGQGLEWIGAIYPGNSDTSYIQKFKGKAKLTAVTSTTSVYMELSSLTNEDSAVYYCTLYDGYYVFAYWGQGTLVTVSA", "VL": "EIVLTQSPVTLSVTPGDSVSLSCRASRDISNNLHWFQQTSHESPRLLIKYASQSMSGIPSRFSGSGSGTDFTLSINSVETEDFGMYFCQQTNSWPYTFGGGTKLEIK", "modifications": "Fab", "notes": "c7E3 Fab (Abciximab, Centocor), platelet GPIIb/IIIa antagonist"}},
  "key": {"[1]": {"tested_on": "clot formation in human whole blood", "experiment": "Computerized thromboelastography (TEG): mediator-induced clot formation under shear in whole blood", "type": "cell-based", "conditions": "for enhancement of clot strength by platelets: TF-accelerated clot formation", "procedure": "Clot formation was monitored at 37° C. in an oscillating plastic cylindrical cuvette (“cup”) and a coaxially suspended stationary piston (“pin”) with a 1 mm clearance between the surfaces, using a computerized Thrombelastograph (CTEG Model 3000, Haemoscope, Skokie, IL). The cup oscillates 4°45′ ( 1/12 radian) in either direction every 4.5 seconds, with a 1 second mid-cycle stationary period; resulting in a frequency of 0.1 Hz and a maximal shear rate of 0.1 per second. The pin is suspended by a torsion wire that acts as a torque transducer. […] The torque experienced by the pin (relative to the cup's oscillation) is plotted as a function of time. The amplitude on the TEG tracing is a measure of the rigidity of the clot; the peak strength or the shear elastic modulus attained by the clot, G, is a function of clot rigidity and can be calculated from the maximal amplitude (MA) of the TEG tracing.\nThe following parameters were measured from the TEG tracing (FIG. 5):\nR, the reaction time (gelation time) represents the latent period before the establishment of a 3-dimensional fibrin gel network (with measurable rigidity of amplitude=2 mm).\nMaximum Amplitude (MA, in mm) is the peak rigidity manifested by the clot.\nShear elastic modulus or clot strength (G, dynes/cm^2) is defined by: G=(5000* MA)/(96-MA) for computerized TEG. […]\nTo assess the effect of the TF modification on peak clot strength (G) was measured with and without the addition of TF in paired samples of WB and PRP. To document the contribution of activated platelets to the elastic modulus of fibrin clots, the effect of platelet number was measured by serially diluting PRP with PPP. The platelet count of each dilution was measured before performing TEG. […] The Thrombelastograph maximum amplitude (MA) for platelets MA (PLT)) was calculated by subtracting the MA from a platelet-poor plasma (PPP) sample MA (PPP) determined in one thromboelastography well from that of whole blood MA (WB) run simultaneously in the second thromboelastography well."}, "[2]": {"tested_on": "carotid artery thrombus formation", "experiment": "Electrically induced carotid artery thrombosis, carotid blood flow (rabbit model of arterial thrombosis)", "type": "in vivo", "conditions": "i.v. infusion from 1 hour before and during 90 min after electrical stimulation, aspirin 1 mg/kg/hr, Compound (A) 0.03 mg/kg/hr, Fragmin 60 U/kg/hr", "procedure": "(§1) Rabbits were anesthetized with ketamine (50 mg/kg i.m.) and xylazine (10 mg/kg i.m.) and then surgically prepared with arterial and venous catheters. An electromagnetic flow probe was placed on a segment of an isolated carotid artery to monitor blood flow. Thrombus formation was induced by electrical stimulation of the carotid artery for 3 min at 4 mA using an external stainless-steel bipolar electrode. Carotid blood flow was measured continuously over a 90-min period to monitor thrombus occlusion. Test agents were infused intravenously 1 hour prior to the electrical stimulation of the carotid artery and continuously during the 90-min period."}, "preformed clot": {"tested_on": "preformed clot", "experiment": "Thrombolysis of a preformed carotid clot in rats (reperfusion, patency, reocclusion)", "type": "in vivo", "conditions": "for effectiveness in preventing thrombosis in this rat model: 0.3 mg/kg i.v., free acids", "procedure": "as §1\nExperiments were conducted in rats anesthetized with ketamine (110 mg/kg i.m.) and xylazine (10 mg/kg i.m.). The protocol is similar to the rabbit protocol as described above in Example 1 except that the free acid of a compound of the formula (B): [drawing 11]\nor the free acid of sibrafiban and/or TPA were given 5 min after a preformed clot was formed. The measured parameters were time to reperfusion, duration of patency and incidence of reocclusion. The doses of TPA, sibrafiban and compound B used were 1, 0.3 and 0.3 mg/kg i.v., respectively."}, "[3]": {"conditions": "rat, TPA 1, sibrafiban 0.3, compound B 0.3 mg/kg i.v., given 5 min after preformed clot, free acids used"}},
  "note": "“Also recorded” adds a separate entry of the source.",
  "data": [
    {"molecule": "CC(=O)O.CCCCOC(=O)N[C@@H](CNC(=O)C[C@H]1CC(c2ccc(C(=N)N)cc2)=NO1)C(=O)OC", "note": "[Compound B, roxifiban]", "values": [
      {"measurement": "enhancement of clot strength by platelets", "setting": "[1]", "result": "inhibited"}
    ]},
    {"molecule": "TFPI: Tissue factor pathway inhibitor", "values": [
      {"measurement": "IC50, clot formation (clot retraction) induced by LPS", "setting": "[1]; LPS 6.25 μg, human whole blood, mean ± SEM", "result": "0.09 ± 0.01", "unit": "µg/mL"}
    ]},
    {"molecule": "CS(=O)(=O)O.Cc1noc(C)c1S(=O)(=O)N[C@@H](CNC(=O)C[C@H]1CC(c2ccc(C(=N)N)cc2)=NO1)C(=O)O", "note": "[Compound (A)]", "values": [
      {"measurement": "effect on occlusion of the artery / carotid blood flow", "setting": "[2]", "result": "did not prevent the occlusion of the artery; also recorded: not effective"}
    ]},
    {"molecule": "CC(=O)Oc1ccccc1C(=O)O", "note": "[Aspirin, aspirin, reference compound]", "values": [
      {"measurement": "effect on occlusion of the artery / carotid blood flow", "setting": "[2]", "result": "did not prevent the occlusion of the artery"}
    ]},
    {"molecule": "CCOC(=O)COC1CCN(C(=O)[C@H](C)NC(=O)c2ccc(C(=N)NO)cc2)CC1", "note": "[sibrafiban, reference compound]", "values": [
      {"measurement": "effectiveness in preventing thrombosis in this rat model", "setting": "preformed clot", "result": "equal effective"}
    ]},
    {"molecule": "CC(=O)O.CCCCOC(=O)N[C@@H](CNC(=O)C[C@H]1CC(c2ccc(C(=N)N)cc2)=NO1)C(=O)OC", "note": "(stereo in doubt) [Compound B, roxifiban]", "values": [
      {"measurement": "effectiveness in preventing thrombosis in this rat model", "setting": "preformed clot", "result": "equal effective"}
    ]},
    {"molecule": "tissue plasminogen activator [TPA]", "values": [
      {"measurement": "Incidence of reocclusion", "setting": "preformed clot; rat, TPA 1, sibrafiban 0.3, compound B 0.3 mg/kg i.v., given 5 min after preformed clot, animals reoccluded/total", "result": "15/17"},
      {"measurement": "Duration of patency", "setting": "preformed clot; [3]", "result": "29 ± 2", "unit": "%"},
      {"measurement": "Time to reperfusion", "setting": "preformed clot; [3]", "result": "32 ± 6", "unit": "min"}
    ]},
    {"molecule": "B1", "values": [
      {"measurement": "enhancement of clot strength by platelets", "setting": "[1]", "result": "inhibited"}
    ]}
  ]
}
